Experimental data from US20180312237A1, “BALLAST WATER TREATMENT DEVICE AND BALLAST WATER TREATMENT METHOD” (Kuraray Co., Ltd., priority 2015, published 2018).

How the values were obtained:
[1] = test system: heterotrophic bacteria; assay: Number of heterotrophic bacteria (seawater medium) in sampled ballast water; format: cell-based
Description: In the present example, using a ballast water treatment device 100 shown in FIG. 8, 100 m^3 of seawater was supplied to a ballast tank 60 with a capacity of about 200 m^3. Specifically, first, a ballast pump 10 was activated to take in seawater from a pipe port 2A of a main pipe 2 by pump pressure. Microbes or particles in the seawater were removed by allowing the seawater to pass through a filter 20.
(§1) Next, by pouring a solution of TRO 2000 mg/L with dissolved sodium dichloroisocyanurate from a sterilizing component-introducing unit 40 to the seawater after being filtered by the above filter, the seawater was made to include a chlorine component. […]
(§2) With respect to each of the above sampled three kinds of ballast water (the ballast water immediately after filling, the ballast water after a lapse of 10 days after filling, and the ballast water in the ballast tank after the ballast water circulation), a TRO concentration and the number of heterotrophic bacteria (seawater medium) were measured. Additionally, as a comparison, the number of heterotrophic bacteria of the seawater was measured. As the TRO concentration, a value measured by a DPD colorimeter II (product of Hach Company) was adopted.

[2] = TRO concentration of sampled ballast water, DPD colorimeter II; format: physicochemical
Description: The ballast water treatment device 1 further includes a concentration measurement unit 41. […] The concentration measurement unit 41 is a sensor for measuring a chlorine concentration of ballast water in the ballast tank 60. Here, a “chlorine concentration (mg/L)” is measured as a total residual oxidant (TRO) concentration of seawater. The TRO concentration can be measured by a measuring instrument using a DPD reagent or the like. […] While in the present embodiment, the concentration measurement unit 41 is attached to the ballast tank 60, the position of the concentration measurement unit 41 is not limited thereto but can be any position that enables a concentration of a sterilizing component of the ballast water in the ballast tank 60 to be measured. For example, the concentration measurement unit 41 may be attached to the circulation pipe 80, or the concentration measurement unit 41 may be attached to the detour pipe 90, or the concentration measurement unit 41 may be attached to the main pipe 2 between the first connection part 2C and the second connection part 2D.
as §1, with “component. By stirring the seawater including a chlorine component by a mixer 50, a chlorine component in the seawater was made uniform to become ballast water, and the ballast tank 60 was filled with the ballast water.” for “component.”
as §2

[3] = ballast water after a lapse of 10 days after filling

O=c1[n-]c(=O)n(Cl)c(=O)n1Cl.[Na+] [sodium dichloroisocyanurate]
The number of bacteria [1, 3]: 4.6 × 10^5 cfu/cc | The number of bacteria ([1]; ballast water immediately after filling, filtered seawater with poured TRO 2000 mg/L solution): 7.4 × 10^1 cfu/cc | TRO concentration [2, 3]: 0.2 mg/L | TRO concentration ([2]; ballast water after circulation with additional sterilizing component): 3.2 mg/L | TRO concentration ([2]; ballast water immediately after filling): 5.0 mg/L
